Source: patent publication US4834982A, “Potassium-neutral salureticum with anti-hypertensive effect” (priority 1987, dated 1989)
“And” between values parts separate entries of the source, which are not always exact repeats. Equal values may be shown once. Read-outs that look alike come from different tables or passages of the source.

Experiments:
[1] = in vivo; cited from earlier work
[2] = cited from earlier work
[3] = contact angle measurements; type: physicochemical
[4] = critical micelle concentration / equilibrium surface tension measurements; type: physicochemical; settings: substances separately, 37° C.
From the text: Since the interfacial molecular areas can be determined from the slopes of equilibrium surface tensions measurements from FIG. A,B, just below the break points, they are easy to compare.

[5] = solubility of furosemide and triamterene; type: physicochemical
[6] = solute permeability of ions on artificial membranes; settings: 0.30 mM
[7] = 40 mg furosemide, normal volunteers; cited from earlier work
[8] = solubilization and binding thermodynamics of furosemide in triamterene micelles; type: physicochemical
[9] = 50 mg/day or 100 mg/day triamterene with 40 mg/day furosemide; cited from earlier work

NS(=O)(=O)c1cc(C(=O)O)cc(N2CCCC2)c1Oc1ccccc1 [peritanide]
half life time t1/2 [1]: about 1 h

Nc1nc(N)c2nc(-c3ccc(OS(=O)(=O)O)cc3)c(N)nc2n1 [hydroxy-triamterene-sulfuric acid ester]
plasma concentration relative to triamterene ([2]; intravenous, simultaneous with furosemide): about ten | potassium loss caused by furosemide ([2]; simultaneous intravenous administration with furosemide): can be impeded

NS(=O)(=O)c1cc(C(=O)O)c(NCc2ccco2)cc1Cl [furosemide]
contact angle [3]: 59 deg. | contact angle ([3]; complexing to stearate, phthalate, etc.): 108 deg | critical micelle concentration (CMC) [4]: 83 µM

Nc1nc(N)c2nc(-c3ccccc3)c(N)nc2n1 [triamterene]
solubility ([5]; 37° C., molar equivalent): 0.0001184 mol/L | solubility ([5]; 37° C., molar equivalent in parentheses): 0,11 mMol | solubility ([5]; molar, read-out: solubility): 0.000118 mol/L | solubility ([5]; pH 5.5, read-out: solubility): 30 µg/mL | solubility ([5]; pH 9-11.0): 5 µg/mL | Solute permeability K (Cl) ([6]; compartment A): 170,3 ± 10,0 mol·s^-1·N^-1 | Solute permeability Na (Cl) ([6]; compartment A): 111,2 ± 12,0 mol·s^-1·N^-1 | Solute permeability K (Cl) ([6]; compartment B): 90,5 ± 5,0 mol·s^-1·N^-1 | Solute permeability Na (Cl) ([6]; compartment B): 207,4 ± 8,0 mol·s^-1·N^-1 | triamterene molecules required to solubilize furosemide (controlled release form of furosemide at basic pH): 320-350 molecules | triamterene molecules required to solubilize furosemide and furosemide in controlled release form (molar basis): 298 molecules and 320 molecules and 324 molecules | half life time t1/2 [1]: 3.0 h | contact angle [3]: 100 deg. | oral dose required to block the kaliuretic effect of furosemide [7]: 50 mg and 100 mg | K(T) of triamterene micelle, times smaller than for a furosemide micelle [8]: roughly 15 times | limiting value of n (aggregation number of triamterene micelles) ([8]; pH 2.5): 15 | limiting value of n (aggregation number of triamterene micelles) ([8]; pH 7.9): 25 | critical micelle concentration (CMC) [4]: 15 µM | natriuretic effect [9]: agument the natriuretic effect

CCCCNc1cc(C(=O)O)cc(S(N)(=O)=O)c1Oc1ccccc1 [bumetanide]
half life time t1/2 [1]: about 1 h
